# In US5519001A, “CETP inhibitor polypeptide antibodies against the synthetic polypeptide and prophylactic and therapeutic anti-atherosclerosis treatments” (Southwest Foundation for Biomedical Research, priority 1995, dated 1996):
# Ends that are not written are not given here.
# T1: Human CETP (Homo sapiens, UniProt P11597)
# T1 construct: To isolate human CETP, blood (5-10 ml) from human subjects was obtained in tubes containing EDTA; from tissue; host or cells: human plasma of individual donors, supernatant after heparin/MnCl2 and dextran sulfate precipitation of lipoproteins
# T1 sequence (P11597 18-493): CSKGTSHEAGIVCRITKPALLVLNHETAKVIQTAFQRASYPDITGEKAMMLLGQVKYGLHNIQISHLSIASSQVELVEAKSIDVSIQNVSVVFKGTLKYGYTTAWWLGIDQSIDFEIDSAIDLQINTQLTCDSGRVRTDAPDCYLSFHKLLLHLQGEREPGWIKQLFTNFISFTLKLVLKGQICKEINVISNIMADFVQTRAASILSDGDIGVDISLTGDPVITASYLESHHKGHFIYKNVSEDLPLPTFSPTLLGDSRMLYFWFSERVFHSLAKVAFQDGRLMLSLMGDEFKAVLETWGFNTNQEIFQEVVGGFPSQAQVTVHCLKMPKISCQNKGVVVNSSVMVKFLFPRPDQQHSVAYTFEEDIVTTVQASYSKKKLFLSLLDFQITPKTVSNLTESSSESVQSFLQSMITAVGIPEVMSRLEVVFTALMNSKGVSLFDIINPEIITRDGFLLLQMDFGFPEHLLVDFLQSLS
# How the values were obtained:
# CETP = experiment: Cholesteryl ester transfer assay (3H CE-HDL to VLDL+LDL, baboon LPDS as CETP source); format: biochemical; conditions: for inhibitory activity of CETP: in vitro, result in words; for effect on transfer of CE from HDL to VLDL+LDL: electroeluted from gels, increasing concentrations, lipoproteins from low HDL1 baboons
# Method: The CE transfer activity of a sample was assayed by a modification of a procedure described previously (Kushwaha et al, (1986), supra). Briefly, ^3 H CE-labeled HDL3 containing 50-100 μg of CE from low HDL1 baboons was incubated with VLDL+LDL containing 100-300 μg CE in the presence of LPDS. The acceptor lipoproteins and the LPDS were obtained from low HDL1 baboon plasma (chow diet). In some cases, the HDL3 was obtained from high HDL1 baboons maintained on the HCHF diet. The incubations were carried out at 4° C. (control) and 37° C. for 4-6 hrs, and terminated by placing the samples on ice. The assay mixture was then ultracentrifuged to separate VLDL+LDL having a d>1.040 g/ml, and the radioactivity in the lipoproteins was counted as described previously (Kushwaha et al, (1986), supra). Any difference observed in the radioactivity transferred from HDL to VLDL+LDL at 4° C. and 37° C. was attributed to CETP activity in the LPDS. Time course experiments gave a linear response up to 7 hrs. Similarly, the CETP activity was linear with increasing LPDS, up to 140 μl LPDS, which was derived from an equivalent volume of plasma. The polypeptide of the invention, and synthetic fragments thereof were added to the reaction mixture to determine their CETP inhibitory activities, along with an appropriate synthetic control peptide. The percent difference between the control experiment and the assay with inhibitor peptide was expressed as the inhibitor activity. A CE transfer assay as described in Example 4 above was conducted using HDL1 baboon plasma, ^3 H HDL, and the VLDL+LDL carriers, in the presence of CETP enzyme to mediate the exchange. The reactions were conducted at 37° C. and at 4° C. (control) in duplicate.
# Human CETP = molecular target: T1, Human CETP; experiment: Inhibition of human CETP by synthetic CETP inhibitor peptide (human LPDS); format: biochemical; conditions: 100 μg peptide, HDL 10 μg, VLDL+LDL 50 μg, CETP 200 μl, 37 °C
# [1] = molecular target: baboon plasma cholesteryl ester transfer protein (CETP), supplied as lipoprotein-deficient serum (LPDS, d>1.21 g/ml) from low HDL1 baboon plasma (baboon (papio sp.))
molecule,measurement,setting,value
"amino acids 15 to 30: intermediate fragment of SEQ. ID. NO:1, amino acids 15 to 30 (TLEDKAWEVINRIKQS)",inhibitory activity of CETP,CETP,active as inhibitors of CETP
Albumin [reference compound],effect on transfer of CE from HDL to VLDL+LDL,CETP,no effect
"amino acids 28 to 36: C-terminal fragment of SEQ. ID. NO:1, amino acids 28 to 36 (9 amino acids) (KQSEFPAKT)",inhibitory activity of CETP at 50 μg,CETP; 50 μg peptide,limited inhibitory activity
same,activity inhibitory of CETP at 200 μg,"CETP; 200 μg peptide, compared with the 36 amino acid peptide",approximately the same as that of the 36 amino acid peptide
APDVSSALDKLKEFGNTLEDKAWEVINRIKQSEFPAKT [SEQ. ID. NO:2],Inhibition (%),Human CETP; human CETP source AB (S.N. 6),60%
same,Inhibition (%),Human CETP; human CETP source EJ (S.N. 3),85%
same,Inhibition (%),Human CETP; human CETP source EW (S.N. 11),71%
same,Inhibition (%),Human CETP; human CETP source GL (S.N. 7),85%
same,Inhibition (%),Human CETP; human CETP source KC (S.N. 8),83%
same,Inhibition (%),Human CETP; human CETP source KR (S.N. 5),82%
same,Inhibition (%),Human CETP; human CETP source ML (S.N. 12),77%
same,Inhibition (%),Human CETP; human CETP source RK (S.N. 2),72%
same,Inhibition (%),Human CETP; human CETP source SH (S.N. 1),60%
same,Inhibition (%),Human CETP; human CETP source TH (S.N. 9),86%
same,Inhibition (%),Human CETP; human CETP source UM (S.N. 10),90%
"amino acids 1 to 20: N-terminal fragment of SEQ. ID. NO:1, amino acids 1 to 20 (DVSSALDKLKEFGNTLEDKA)",inhibitory activity of CETP,CETP,active as inhibitors of CETP
"amino acids 1 to 15: N-terminal fragment of SEQ. ID. NO:1, amino acids 1 to 15 (DVSSALDKLKEFGNT)",inhibitory activity of CETP,CETP,active as inhibitors of CETP
"SEQ. ID. NO:1: synthetic 36 amino acid peptide, sequence of the 4 kD baboon CETP inhibitor, common with N-terminal fragment of apo C-I (DVSSALDKLKEFGNTLEDKAWEVINRIKQSEFPAKT)",inhibition of CE transfer from HDL to VLDL and LDL,"CETP; 50 μg peptide, lipoproteins of low HDL1 baboons",significantly (p<0.01) inhibited
same,inhibitory activity of CETP,CETP,inhibitory of CETP
"amino acids 16 to 36: C-terminal fragment of SEQ. ID. NO:1, amino acids 16 to 36 (21 amino acids) (LEDKAWEVINRIKQSEFPAKT)",inhibitory activity of CETP at 50 μg,CETP; 50 μg peptide,limited inhibitory activity
"amino acids 1 to 10: N-terminal fragment of SEQ. ID. NO:1, amino acids 1 to 10 (DVSSALDKLK)",inhibitory activity of CETP,CETP,active as inhibitors of CETP
"4 kD polypeptide: endogenous CETP inhibitor polypeptide of molecular weight 4,000 electroeluted from lipoproteins of high HDL1 baboons (DVSSALDKLKEFGNTLEDKAWEVINRIKQSEFPAKT)",effect on transfer of CE from HDL to VLDL+LDL,CETP,significantly inhibited CETP activity
"TPDVSSALDKLKEFGNTLEDKARELISRIKQSELSAKM [synthetic CETP inhibitor peptide, human apo C-I terminal peptide with 38 amino acids (SEQ ID NO 3)]",Inhibition (%) of CETP-mediated cholesteryl ester transfer,[1],60%
"APDVSSALDKLKEFGNTLEDKAWEVINRIKQSEFPAKT [synthetic CETP inhibitor peptide, baboon apo C-I terminal peptide with 38 amino acids (SEQ ID NO 2)]",Inhibition (%) of CETP-mediated cholesteryl ester transfer,[1],52%
